Reference: patent EP2121694B1, “CYCLOPROPYL FUSED INDOLOBENZAZEPINE HCV NS5B INHIBITORS” (Bristol-Myers Squibb Company, priority 2007, dated 2008)
Read-outs that look alike come from different tables or passages of the source.

Assays:
HCV NS5B = biological target: T1, HCV NS5B (Hepatitis C virus genotype 1b, UniProt Q9WMX2); test: Modified HCV NS5B RdRp enzyme assay (preincubation protocol); format: biochemical; settings: HCV NS5B RdRp genotype 1b
T1 construct: The protein was expressed with an 18 amino acid C-terminal truncation to enhance the solubility; made in house; host or cells: E. coli BL21(DE3), pET21a vector
T1 sequence (Q9WMX2 2420-2992): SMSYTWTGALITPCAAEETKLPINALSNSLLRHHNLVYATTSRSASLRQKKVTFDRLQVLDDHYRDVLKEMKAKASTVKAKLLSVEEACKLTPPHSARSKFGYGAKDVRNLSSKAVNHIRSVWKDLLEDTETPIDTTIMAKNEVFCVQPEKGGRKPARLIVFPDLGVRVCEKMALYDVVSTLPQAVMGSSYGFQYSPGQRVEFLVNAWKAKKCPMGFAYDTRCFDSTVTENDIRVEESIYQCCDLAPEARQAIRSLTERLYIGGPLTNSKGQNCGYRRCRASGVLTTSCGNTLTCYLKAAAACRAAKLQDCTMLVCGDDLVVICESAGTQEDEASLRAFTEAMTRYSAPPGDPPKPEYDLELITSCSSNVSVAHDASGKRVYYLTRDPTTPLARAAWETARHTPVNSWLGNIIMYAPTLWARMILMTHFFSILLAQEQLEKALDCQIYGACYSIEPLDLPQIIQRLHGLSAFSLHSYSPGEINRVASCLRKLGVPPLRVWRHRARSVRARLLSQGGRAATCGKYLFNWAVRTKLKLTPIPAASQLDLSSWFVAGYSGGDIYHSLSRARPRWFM
Method: HCV NS5B RdRp cloning, expression, and purification. The cDNA encoding the NS5B protein of HCV, genotype 1b, was cloned into the pET21a expression vector. The protein was expressed with an 18 amino acid C-terminal truncation to enhance the solubility. The E. coli competent cell line BL21(DE3) was used for expression of the protein. Cultures were grown at 37 °C for ∼ 4 hours until the cultures reached an optical density of 2.0 at 600 nm. The cultures were cooled to 20 °C and induced with 1 mM IPTG. Fresh ampicillin was added to a final concentration of 50 µg/ml and the cells were grown overnight at 20 °C.
Cell pellets (3L) were lysed for purification to yield 15-24 mgs of purified NS5B. The lysis buffer consisted of 20 mM Tris-HCl, pH 7.4, 500 mM NaCl, 0.5% triton X-100, 1 mM DTT, 1mM EDTA, 20% glycerol, 0.5 mg/ml lysozyme, 10 mM MgCl2, 15 ug/ml deoxyribonuclease I, and Complete TM protease inhibitor tablets (Roche). After addition of the lysis buffer, frozen cell pellets were resuspended using a tissue homogenizer. To reduce the viscosity of the sample, aliquots of the lysate were sonicated on ice using a microtip attached to a Branson sonicator. The sonicated lysate was centrifuged at 100,000 x g for 1hr at 4 °C and filtered through a 0.2 µm filter unit (Corning).
The protein was purified using three sequential chromatography steps: Heparin sepharose CL-6B, polyU sepharose 4B, and Hitrap SP sepharose (Pharmacia). The chromatography buffers were identical to the lysis buffer but contained no lysozyme, deoxyribonuclease I, MgCl2 or protease inhibitor and the NaCl concentration of the buffer was adjusted according to the requirements for charging the protein onto the column. Each column was eluted with a NaCl gradient which varied in length from 5-50 column volumes depending on the column type. After the final chromatography step, the resulting purity of the enzyme is >90% based on SDS-PAGE analysis. The enzyme was aliquoted and stored at -80 °C.
Standard HCV NS5B RdRp enzyme assay. HCV RdRp genotype 1b assays were run in a final volume of 60 µl in 96 well plates (Costar 3912). The assay buffer is composed of 20 mM Hepes, pH 7.5, 2.5 mM KCl, 2.5 mM MgCl2, 1 mM DTT, 1.6 U RNAse inhibitor (Promega N2515), 0.1 mg/ml BSA (Promega R3961), and 2 % glycerol. All compounds were serially diluted (3-fold) in DMSO and diluted further in water such that the final concentration of DMSO in the assay was 2%. HCV RdRp genotype 1b enzyme was used at a final concentration of 28 nM. A polyA template was used at 6 nM, and a biotinylated oligo-dT12 primer was used at 180 nM final concentration. Template was obtained commercially (Amersham 27-4110). Biotinylated primer was prepared by Sigma Genosys. 3H-UTP was used at 0.6 µCi (0.29 µM total UTP). Reactions were initiated by the addition of enzyme, incubated at 30 °C for 60 min, and stopped by adding 25 µl of 50 mM EDTA containing SPA beads (4 µg/µl, Amersham RPNQ 0007). Plates were read on a Packard Top Count NXT after >1hr incubation at room temperature.
Modified HCV NS5B RdRp enzyme assay. A modified enzyme assay was performed essentially as described for the standard enzyme assay except for the following: The biotinylated oligo dT12 primer was precaptured on streptavidin-coated SPA beads by mixing primer and beads in assay buffer and incubating at room temperature for one hour. Unbound primer was removed after centrifugation. The primer-bound beads were resuspended in 20 mM Hepes buffer, pH 7.5 and used in the assay at final concentrations of 20 nM primer and 0.67 µg/µl beads. Order of addition in the assay: enzyme (14 nM) was added to diluted compound followed by the addition of a mixture of template (0.2 nM) , 3H-UTP (0.6 µCi, 0.29 µM), and primer-bound beads, to initiate the reaction; concentrations given are final. Reactions were allowed to proceed for 4 hours at 30° C.
IC50 values for compounds were determined using seven different [I]. […]

HCV replicon = test: HCV FRET screening assay in HCV replicon cells; format: cell-based; settings: Hepatitis C virus
Source text: FRET Assay Preparation. To perform the HCV FRET screening assay, 96-well cell culture plates were used. The FRET peptide (Anaspec, Inc.) (Taliani et al., Anal. Biochem. 1996, 240, 60-67) contains a fluorescence donor, EDANS, near one end of the peptide and an acceptor, DABCYL, near the other end. The fluorescence of the peptide is quenched by […] resonance energy transfer (RET) between the donor and the acceptor, but as the NS3 protease cleaves the peptide the products are released from RET quenching and the fluorescence of the donor becomes apparent. The assay reagent was made as follows: 5X cell Luciferase cell culture lysis reagent from Promega (#E153A) diluted to 1X with dH2O, NaCl added to 150 mM final, the FRET peptide diluted to 20 uM final from a 2 mM stock.
To prepare plates, HCV replicon cells, with or without a Renilla luciferase reporter gene, were trypsinized and placed into each well of a 96-well plate with titrated test compounds added in columns 3 through 12; columns 1 and 2 contained a control compound (HCV protease inhibitor), and the bottom row contained cells without compound. The plates were then placed in a CO2 incubator at 37 °C.
Assays. Subsequent to addition of the test compounds described above (FRET Assay Preparation), at various times the plate was removed and Alamar blue solution (Trek Diagnostics, #00-100) was added per well as a measure of cellular toxicity. After reading in a Cytoflour 4000 instrument (PE Biosystems), plates were rinsed with PBS and then used for FRET assay by the addition of 30 ul of the FRET peptide assay reagent described above (FRET Assay Preparation) per well. The plate was then placed into the Cytoflour 4000 instrument which had been set to 340 excite/490 emission, automatic mode for 20 cycles and the plate read in a kinetic mode. Typically, the signal to noise using an endpoint analysis after the reads was at least three-fold. Alternatively, after Alamar blue reading, plates were rinsed with PBS, 50 ul of DMEM (high glucose) without phenol red was added and plates were then used for luciferase assay using the Promega Dual-Glo Luciferase Assay System.
Compound analysis was determined by quantification of the relative HCV replicon inhibition and the relative cytotoxicity values. To calculate cytoxicity values, the average Alamar Blue fluorescence signals from the control wells were set as 100% non-toxic. The individual signals in each of the compound test wells were then divided by the average control signal and multiplied by 100% to determine […]. To calculate the HCV replicon inhibition values, an average background value was obtained from the two wells containing the highest amount of HCV protease inhibitor at the end of the assay period. These numbers were similar to those obtained from naïve Huh-7 cells.
The background numbers were then subtracted from the average signal obtained from the control wells and this number was used as 100% activity. The individual signals in each of the compound test wells were then divided by the averaged control values after background subtraction and multiplied by 100% to determine percent activity. EC50 values for a protease inhibitor titration were calculated as the concentration which caused a 50% reduction in FRET or luciferase activity. The two numbers generated for the compound plate, percent cytoxicity and percent activity were used to determine compounds of interest for further analysis.

[1] = HCV replicon cells, FRET assay, read-out: EC50

Row | SMILES | IC50 (HCV NS5B) [nM] | EC50 (HCV replicon; [1]) [nM] | EC50 (HCV replicon) [nM]
1 | COc1ccc2c(c1)C1CC1(C(=O)N1CCC(F)(F)CC1)Cn1c-2c(C2CCCCC2)c2ccc(C(=O)NS(=O)(=O)N(C)C)cc21 (centres unmarked) | 97 to 1000 | 97 to 1000 | –
2 | C[C@@H]1CN(C(=O)C23CC2c2c(OC(F)(F)F)cccc2-c2c(C4CCCCC4)c4ccc(C(=O)O)cc4n2C3)C[C@H](C)O1 (some centres unmarked) | 97 to 1000 | 97 to 1000 | –
3 | COC(=O)C12CC1c1cc(O)ccc1-c1c(C3CCCCC3)c3ccc(C(=O)OC(C)(C)C)cc3n1C2 (centres unmarked) | 1000 to 10000 | > 1000 | –
4 | COC(=O)c1ccc2c(C3CCCCC3)c3n(c2c1)CC1(C(=O)OC)CC1c1c(OC(F)(F)F)cccc1-3 (centres unmarked) | > 10000 | > 120 | –
5 | COc1cccc2c1C1CC1(C(=O)N1C[C@@H](C)O[C@@H](C)C1)Cn1c-2c(C2CCCCC2)c2ccc(C(=O)NS(=O)(=O)N(C)C)cc21 (some centres unmarked) | 97 to 1000 | 97 to 1000 | –
6 | COc1ccc2c(c1)C1CC1(C(=O)N1CCCN(C)CC1)Cn1c-2c(C2CCCCC2)c2ccc(C(=O)NS(=O)(=O)C(C)C)cc21 (centres unmarked) | 97 to 1000 | > 120 | –
7 | COc1ccc2c(c1)C1CC1(C(=O)N1CCC(C)(O)CC1)Cn1c-2c(C2CCCCC2)c2ccc(C(=O)NS(N)(=O)=O)cc21 (centres unmarked) | 97 to 1000 | 97 to 1000 | –
8 | COc1ccc2c(c1)C1CC1(C(=O)N1CCOC[C@H]1CN)Cn1c-2c(C2CCCCC2)c2ccc(C(=O)NS(=O)(=O)N(C)C)cc21 (some centres unmarked) | 97 to 1000 | 97 to 1000 | –
9 | COc1ccc2c(c1)C1CC1(C(=O)N1C[C@@H](C)O[C@@H](C)C1)Cn1c-2c(C2CCCCC2)c2ccc(C(=O)NS(=O)(=O)C3CC3)cc21 (some centres unmarked) | 97 to 1000 | 97 to 1000 | –
10 | COc1ccc2c(c1)C1CC1(C(=O)N1CCCN(C)CC1)Cn1c-2c(C2CCCCC2)c2ccc(C(=O)NS(=O)(=O)C3CC3)cc21 (centres unmarked) | 97 to 1000 | 97 to 1000 | –
11 | COc1ccc2c(c1)C1CC1(C(=O)N1CCN(c3ccccn3)CC1)Cn1c-2c(C2CCCCC2)c2ccc(C(=O)NS(=O)(=O)C3CC3)cc21 (centres unmarked) | 97 to 1000 | 97 to 1000 | –
12 | COc1ccc2c(c1)C1CC1(C(=O)N1CCCCC1CN(C)C)Cn1c-2c(C2CCCCC2)c2ccc(C(=O)NS(=O)(=O)N(C)C)cc21 (centres unmarked) [drawing 49] | 97 to 1000 | 97 to 1000 | –
13 | COc1ccc2c(c1)C1CC1(C(=O)N1CCCN(C)CC1)Cn1c-2c(C2CCCCC2)c2ccc(C(=O)NS(=O)(=O)N(C)C)cc21 (centres unmarked) [drawing 58] | 97 to 1000 | 97 to 1000 | –
14 | CCN(CC)CCN(CCN(CC)CC)C(=O)C12CC1c1cc(OC)ccc1-c1c(C3CCCCC3)c3ccc(C(=O)NS(=O)(=O)N(C)C)cc3n1C2 (centres unmarked) | 97 to 1000 | 97 to 1000 | –
15 | CCN(CC)CCN(C)C(=O)C12CC1c1cc(OC)ccc1-c1c(C3CCCCC3)c3ccc(C(=O)NS(=O)(=O)N(C)C)cc3n1C2 (centres unmarked) | 97 to 1000 | 97 to 1000 | –
16 | COCC1CN(C(=O)C23CC2c2cc(OC)ccc2-c2c(C4CCCCC4)c4ccc(C(=O)NS(=O)(=O)N(C)C)cc4n2C3)CCO1 (centres unmarked) | 97 to 1000 | – | 97 to 1000
